The test system of one assay is HGS tumor model. The assay can be described thus: Anti-tumor activity in HGS tumor model. Format: in vivo. The following applies: animals treated with 20/kg of compound, day 42 after inoculation.
Description: […]

The target in assay [1] is T1, ENPP1 (Homo sapiens, UniProt P22413).
T1 sequence (P22413 1-925): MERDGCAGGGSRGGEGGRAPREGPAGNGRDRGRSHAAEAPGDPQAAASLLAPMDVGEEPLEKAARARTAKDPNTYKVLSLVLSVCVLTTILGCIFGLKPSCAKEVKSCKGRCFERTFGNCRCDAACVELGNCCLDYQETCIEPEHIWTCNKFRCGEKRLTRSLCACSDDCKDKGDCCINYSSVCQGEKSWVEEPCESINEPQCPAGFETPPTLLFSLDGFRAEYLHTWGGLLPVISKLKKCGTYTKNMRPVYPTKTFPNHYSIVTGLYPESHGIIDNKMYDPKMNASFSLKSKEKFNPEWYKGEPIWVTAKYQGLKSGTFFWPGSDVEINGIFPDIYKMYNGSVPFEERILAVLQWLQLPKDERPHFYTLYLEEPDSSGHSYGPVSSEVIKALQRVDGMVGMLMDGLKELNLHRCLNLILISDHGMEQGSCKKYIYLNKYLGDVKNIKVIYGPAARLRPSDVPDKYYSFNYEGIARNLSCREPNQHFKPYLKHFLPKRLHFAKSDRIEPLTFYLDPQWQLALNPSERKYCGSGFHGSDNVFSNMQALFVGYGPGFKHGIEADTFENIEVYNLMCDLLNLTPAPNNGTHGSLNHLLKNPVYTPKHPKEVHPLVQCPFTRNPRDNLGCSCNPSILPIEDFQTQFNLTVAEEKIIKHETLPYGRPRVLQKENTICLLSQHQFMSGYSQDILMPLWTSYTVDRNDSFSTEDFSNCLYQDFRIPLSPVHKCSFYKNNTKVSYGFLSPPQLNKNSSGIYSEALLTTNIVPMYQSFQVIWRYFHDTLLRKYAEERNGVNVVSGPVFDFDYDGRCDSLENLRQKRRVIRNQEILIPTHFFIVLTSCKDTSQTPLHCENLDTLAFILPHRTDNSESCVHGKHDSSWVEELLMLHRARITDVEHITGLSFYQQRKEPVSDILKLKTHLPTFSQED
As to the kind of experiment: Measurement of 2′3′-cGAMP hydrolysis by ENPP1 (AMP-Glo). Format: biochemical. The following applies: 2′3′-cGAMP substrate 100 μM, KM 32 μM; Ki from IC50 by Cheng-Prusoff. On the procedure:
Measurement of 2′3′-cGAMP hydrolysis by ENPP1
The AMP-Glo assay kit from Promega (catalog number V5012) was used for measurement of 5′-AMP production.
First, an ENPP1 and test compound incubation was set up in assay buffer (50 mM Tris -HCl, pH8.8, 250 mM NaCl, 0.1 mg/ml BSA) with following conditions: ENPP1 concentration: 1.25 nM; test compound concentration ranging from 137 pM to 100 nM. The incubation was carried out at 25° C. for 10 min.
Second, after the 10-minute incubation of ENPP1 and test compound, prepare on a separate plate, 15 μl of the substrate 2′3′-cGAMP at 200 μM in assay buffer. Then, 15 μl of the ENPP1/Compound incubation was transferred to the 200 μM 2′3′-cGAMP solution to initiate the reaction. The 30 μl mixture was incubated for 30 min at 25° C. In all these assays a DMSO control without compound was included which gave the maximum 5′-AMP production (MAX RLU). After 30 min the reaction was stopped by heating at 90° C. for 3 min.
Third, the Promega AMP-Glo kit was used to detect 5′-AMP production as a measurement of ENPP1 enzyme activity. Briefly, 10 μl of the above mentioned 30 μl total reaction per sample was transferred into 384 well white solid assay plate for measurement of 5′-AMP production. For each well, 10 μl of AMP-Glo Reagent I was added, mixed well, and incubated for 1 hour at 25° C. At this time AMP detection solution was prepared and 20 μl was added per well, and the resulting solution was incubated for 1 hr at 25° C. Duplicates were run for each inhibitor concentration. Luminescence signal (relative luminescence units, RLU) was recorded using a PerkinElmer 2300 Enspire multimode plate reader.
The % inhibition was calculated using the following equation: % inhibition=(MAX RLU-sample RLU)/MAX RLU X 100%.
IC50 values of compounds were determined by loading compound concentration data and percent inhibition values into GraphPad Prism (GraphPad Prism version 7.0 for
Windows, GraphPad Software, La Jolla California USA, www.graphpad.com) and conducted a Sigmoidal variable slope nonlinear regression fitting.
Ki values for each compound were calculated from the observed IC50 from GraphPad analysis using the Cheng-Prusoff equation: Ki=IC50/(1+ (S)/KM). (S) here is 100μ M and KM is 32 μm.

Assay [2] deals with T1, ENPP1. As to the kind of experiment: Measurement of pNP-TMP hydrolysis by ENPP1. Type of assay: biochemical. The note with it: pNP-TMP substrate 500 μM, Km 232 μM; Ki from IC50 by Cheng-Prusoff. On the procedure: Measurement of pNP-TMP hydrolysis by ENPP1
p-Nitrophenyl thymidine 5′-monophosphate (pNP-TMP) is a synthesized substrate for ENPP1. The ENPP1 enzyme activity assay with pNP-TMP substrate was conducted as follows:
First, in a 60 μl reaction, 7.5 ng purified ENPP1 was mixed with 1.2 μl compounds of Formula (I) (test compound) ranging from 13.7 nM to 10 μM. Incubation of ENPP1 with compounds was set at 25° C. for 10 min. Reactions with DMSO only (with ENPP1 but no compound) gave the fastest reaction (MAX Activity). For each compound dilution, wells with assay buffer (50 mM Tris -HCl, pH8.8, 250 mM NaCl, 0.1 mg/ml BSA) and test compounds but no ENPP1 were included as controls for the subtraction of test compound derived absorbance at 405 nm.
Second, after 10 minutes incubation of ENPP1 and test compound, the assay was initiated by transferring 50 μl of the above mentioned ENPP1/test compound reaction into 50 μl of 1 mM pNP-TMP in assay buffer results in a 100 μl total reaction in non-binding surface clear bottom 96 well plates. Absorbance at 405 nm was recorded immediately in kinetic mode by PerkinElmer 2300 Enspire multimode plate reader.
For each inhibitor, the specific ENPP1 activity was calculated using the following equation: ENPP1 activity (pmol/min/μg)=Adjusted Vmax (OD405 nm/min) X conversion factor (pmol/OD405 nm)/amount of enzyme (μg)
Adjusted Vmax=V0X (Km+(S))/(S). In this assay, Km=232 μM, (S)=500 μM. Adjusted Vmax=1.464 X V0.
V0=(OD405 nm with ENPP1-OD405 nm ENPP1 blank)/minutes. OD405 nm was plotted, with blank subtracted, against time (minutes), the initial linear rate is V0.
The conversion factor (pmol/OD405 nm), was determined by plotting the amount of standard, 4-Nitrophenol (Sigma -Aldrich, Catalog #241326), against absorbance at 405 nm. The slope is the conversion factor. The percent ENPP1 activity for each sample was calculated using the following equation: […]
To determine the IC50 for each compound, compound concentration values and percent enzyme activity values were inserted into GraphPad Prism (GraphPad Prism version 9.0 for Windows, GraphPad Software, La Jolla California USA, www.graphpad.com), and Prism's Transform analysis was used to convert the x-axis values (compound concentration) to logarithms. A sigmoidal variable slope nonlinear regression analysis was performed using the following equation: Y=Bottom+ (Top-Bottom)/(1+10^((Log IC50″X) *HillSlope)).
Ki values for each compound were calculated from the observed IC50 from GraphPad analysis using the Cheng-Prusoff equation: Ki=IC50/(1+(S)/KM). (S) here is 500 μM and KM is determined to be 232 μM.

Molecules are shown by their SMILES. pKi: −log10 of the molar value.

Regarding `C=CC(=O)N1CCN(CCCn2c(=O)c(-c3c(Cl)c(OC)cc(OC)c3Cl)cc3cnc(NC)nc32)CC1` [8-(3-(4-acryloylpiperazin-1-yl)propyl)-6-(2,6-dichloro-3,5-dimethoxyphenyl)-2-(methylamino)pyrido (2,3-d)pyrimidin-7 (8H)-one], the tumor size in the assay with HGS tumor model is 55 mm3.

On to `N=S(=O)(c1cccc(COc2ccnc3c(OCF)nccc23)c1)C1CC1` (racemic) [Example 41, cyclopropyl(3-(((8-(fluoromethoxy)-1,7-naphthyridin-4-yl)oxy)methyl)phenyl)-(imino)-lambda6-sulfanone], for which the figures for the pKi at ENPP1 [1] and at ENPP1 [2] were > 9.00 and > 8.00, respectively.
